Reference: ChEMBL document CHEMBL1132005, “Structure-activity relationship in two series of aminoalkyl substituted coumarin inhibitors of gyrase B” (1999)
In brackets after ≈: the same amount, converted by molar mass.

Key:
Enterococcus faecium = experiment: In vitro antibacterial activity against Enterococcus faecium 02D31P2 VanTeiEry-R; type: functional
[1] = molecular target: DNA gyrase (Escherichia coli) (UniProt P0AES6+P0AES4); experiment: In vitro inhibition of supercoiling activity of Escherichia coli DNA gyrase as the ratio of IC50 of Novobiocin and IC50 of compound; type: protein-complex assay
[2] = tested on: Staphylococcus epidermidis; experiment: In vitro antibacterial activity against Staphylococcus epidermidis 012GO39 OxaTei-R; type: functional
Staphylococcus aureus [3] = experiment: In vitro antibacterial activity against Staphylococcus aureus 011GO76 OfloOxaEry-R; type: functional
Staphylococcus aureus [4] = experiment: In vitro antibacterial activity against Staphylococcus aureus 011HT1 Nov-R; type: functional
Staphylococcus aureus [5] = experiment: In vitro antibacterial activity against Staphylococcus aureus 011HT3; type: functional
Streptococcus pyogenes = experiment: In vitro antibacterial activity against Streptococcus pyogenes O2A1UC1

Row | Compound | MIC (Enterococcus faecium) [µg/mL] | Ratio [1] | MIC [2] [µg/mL] | MIC (Staphylococcus aureus [3]) [µg/mL] | MIC (Staphylococcus aureus [4]) [µg/mL] | MIC (Staphylococcus aureus [5]) [µg/mL] | MIC (Streptococcus pyogenes) [µg/mL]
1 | CO[C@@H]1[C@@H](OC(=O)c2ccc(C)[nH]2)[C@@H](O)[C@H](Oc2ccc3c(OCCN4CCN(C)CC4)cc(=O)oc3c2C)OC1(C)C | 40 (≈ 66.7 µM) | 0.5 | 1.2 (≈ 2 µM) | 2.5 (≈ 4.17 µM) | 20 (≈ 33.4 µM) | 1.2 (≈ 2 µM) | 10 (≈ 16.7 µM)
2 | CO[C@@H]1[C@@H](OC(=O)c2ccc(C)[nH]2)[C@@H](O)[C@H](Oc2ccc3c(OCCN4CCC[C@H]4CO)cc(=O)oc3c2C)OC1(C)C | 20 (≈ 33.3 µM) | 0.66 | 2.5 (≈ 4.16 µM) | – | 40 (≈ 66.6 µM) | 0.6 (≈ 0.999 µM) | 5 (≈ 8.32 µM)
3 | CO[C@@H]1[C@@H](OC(=O)c2ccc(C)[nH]2)[C@@H](O)[C@H](Oc2ccc3c(OCCn4cnc(-c5cccnc5)c4)cc(=O)oc3c2C)OC1(C)C | > 40 | 0.63 | 0.08 (≈ 0.124 µM) | > 40 | > 40 | 0.6 (≈ 0.931 µM) | 1.2 (≈ 1.86 µM)
4 | CO[C@@H]1[C@@H](OC(=O)c2ccc(C)[nH]2)[C@@H](O)[C@H](Oc2ccc3c(OCCN4CCOCC4)c(Cl)c(=O)oc3c2C)OC1(C)C | > 40 | 0.17 | 2.5 (≈ 4.03 µM) | 2.5 (≈ 4.03 µM) | > 40 | 1.2 (≈ 1.93 µM) | 5 (≈ 8.05 µM)
5 | CO[C@@H]1[C@@H](OC(=O)c2ccc(C)[nH]2)[C@@H](O)[C@H](Oc2ccc3c(OCCN(C)C)c(Cl)c(=O)oc3c2C)OC1(C)C | > 40 | 0.33 | 5 (≈ 8.63 µM) | 20 (≈ 34.5 µM) | > 40 | 10 (≈ 17.3 µM) | 40 (≈ 69.1 µM)
6 | CCN1CCN(Cc2cc(=O)oc3c(C)c(O[C@@H]4OC(C)(C)[C@H](OC)[C@@H](OC(=O)c5ccc(C)[nH]5)[C@H]4O)ccc23)CC1 | > 40 | 1 | 2.5 (≈ 4.28 µM) | 10 (≈ 17.1 µM) | > 40 | 5 (≈ 8.57 µM) | 20 (≈ 34.3 µM)
7 | CO[C@@H]1[C@@H](OC(=O)c2ccc(C)[nH]2)[C@@H](O)[C@H](Oc2ccc3c(OCCn4cncn4)cc(=O)oc3c2C)OC1(C)C | 10 (≈ 17.6 µM) | 0.57 | < 0.04 | 10 (≈ 17.6 µM) | 20 (≈ 35.2 µM) | 0.3 (≈ 0.528 µM) | 1.2 (≈ 2.11 µM)
8 | CO[C@@H]1[C@@H](OC(=O)c2ccc(C)[nH]2)[C@@H](O)[C@H](Oc2ccc3c(CN4CCNC(c5ccco5)C4)cc(=O)oc3c2C)OC1(C)C (some centres undefined) | 10 (≈ 16.1 µM) | 0.33 | 0.6 (≈ 0.965 µM) | 10 (≈ 16.1 µM) | 10 (≈ 16.1 µM) | 0.6 (≈ 0.965 µM) | 1.2 (≈ 1.93 µM)
9 | CO[C@@H]1[C@@H](OC(=O)c2ccc(C)[nH]2)[C@@H](O)[C@H](Oc2ccc3c(OCCn4ccnc4)cc(=O)oc3c2C)OC1(C)C | 10 (≈ 17.6 µM) | 0.22 | 0.3 (≈ 0.529 µM) | 1.2 (≈ 2.11 µM) | > 20 | 0.6 (≈ 1.06 µM) | 1.2 (≈ 2.11 µM)
10 | CO[C@@H]1[C@@H](OC(=O)c2ccc(C)[nH]2)[C@@H](O)[C@H](Oc2ccc3c(OCCSc4ncc[nH]4)cc(=O)oc3c2C)OC1(C)C | 5 (≈ 8.34 µM) | 0.33 | < 0.04 | 5 (≈ 8.34 µM) | 2.5 (≈ 4.17 µM) | 0.08 (≈ 0.133 µM) | 0.6 (≈ 1 µM)
11 | CO[C@@H]1[C@@H](OC(=O)c2ccc(C)[nH]2)[C@@H](O)[C@H](Oc2ccc3c(CN4CCCC4)cc(=O)oc3c2C)OC1(C)C | > 40 | 0.5 | 2.5 (≈ 4.62 µM) | 5 (≈ 9.25 µM) | 40 (≈ 74 µM) | 2.5 (≈ 4.62 µM) | 10 (≈ 18.5 µM)
12 | CO[C@@H]1[C@@H](OC(=O)c2ccc(C)[nH]2)[C@@H](O)[C@H](Oc2ccc3c(OCCN4CCN(C)CC4)c(Cl)c(=O)oc3c2C)OC1(C)C | > 40 | 0.33 | 5 (≈ 7.88 µM) | 10 (≈ 15.8 µM) | > 40 | 5 (≈ 7.88 µM) | 10 (≈ 15.8 µM)
13 | CO[C@@H]1[C@@H](OC(=O)c2ccc(C)[nH]2)[C@@H](O)[C@H](Oc2ccc3c(CSc4ncc[nH]4)cc(=O)oc3c2C)OC1(C)C | 20 (≈ 35.1 µM) | 0.35 | 0.6 (≈ 1.05 µM) | 10 (≈ 17.6 µM) | 20 (≈ 35.1 µM) | 0.6 (≈ 1.05 µM) | 2.5 (≈ 4.39 µM)
14 | CO[C@@H]1[C@@H](OC(=O)c2ccc(C)[nH]2)[C@@H](O)[C@H](Oc2ccc3c(CN4CCNC(c5ccccc5)C4)cc(=O)oc3c2C)OC1(C)C (some centres undefined) | 10 (≈ 15.8 µM) | 0.28 | 1.2 (≈ 1.9 µM) | 5 (≈ 7.91 µM) | 10 (≈ 15.8 µM) | 1.2 (≈ 1.9 µM) | 2.5 (≈ 3.96 µM)
15 | CO[C@@H]1[C@@H](OC(=O)c2ccc(C)[nH]2)[C@@H](O)[C@H](Oc2ccc3c(OCCN4CCNC(c5ccccc5)C4)cc(=O)oc3c2C)OC1(C)C (some centres undefined) | 5 (≈ 7.56 µM) | 0.33 | 0.6 (≈ 0.907 µM) | 10 (≈ 15.1 µM) | 5 (≈ 7.56 µM) | 0.3 (≈ 0.453 µM) | 1.2 (≈ 1.81 µM)
16 | CO[C@@H]1[C@@H](OC(=O)c2ccc(C)[nH]2)[C@@H](O)[C@H](Oc2ccc3c(O)c(NC(=O)c4ccc(O)c(CC=C(C)C)c4)c(=O)oc3c2Cl)OC1(C)C [CHLOROBIOCIN] | – | – | < 0.04 | < 0.04 | 0.15 (≈ 0.215 µM) | < 0.04 | < 0.04
